# Read-outs that look alike come from different tables or passages of the source.
# Target: human PDE4D catalytic domain (Homo sapiens (Human), UniProt Q08499)
# Test: PDE4 Assay (TR-FRET, FAM-cAMP cleavage)
# Assay type: biochemical
# Details: read-out: PDE4 IC50 range
# Experimental: The human PDE4D catalytic domain (UniProt no. Q08499 [S380-L740]) was incubated with a mixture of non-labelled cAMP (cyclic adenosine monophosphate) and fluorescein amidite (FAM) conjugated cAMP and titrated test or reference Compound. Following brief incubation the enzymatic reaction was stopped by addition of binding buffer containing nanoparticles with immobilized trivalent metal ions capable of binding 1) AMP phospho groups and 2) terbium (Tb) donor fluorophores. Subsequent excitation of the Tb donor triggers time-resolved FRET to adjacent FAM acceptor molecules resulting in light emission. In the presence of a PDE4 inhibitor, AMP generation was reduced resulting in a lower fluorescence signal. The cAMP phosphodiester is not bound by the detection system.
# The results were calculated as the molar concentrations resulting in 50% inhibition of the substrate cleavage compared to controls samples, and are expressed as a range of IC50 (nM).
# [1] = human PDE4D catalytic domain (UniProt Q08499 [S380-L740]), 50% inhibition of substrate cleavage
# Chain of human PDE4D catalytic domain (Q08499 380-740): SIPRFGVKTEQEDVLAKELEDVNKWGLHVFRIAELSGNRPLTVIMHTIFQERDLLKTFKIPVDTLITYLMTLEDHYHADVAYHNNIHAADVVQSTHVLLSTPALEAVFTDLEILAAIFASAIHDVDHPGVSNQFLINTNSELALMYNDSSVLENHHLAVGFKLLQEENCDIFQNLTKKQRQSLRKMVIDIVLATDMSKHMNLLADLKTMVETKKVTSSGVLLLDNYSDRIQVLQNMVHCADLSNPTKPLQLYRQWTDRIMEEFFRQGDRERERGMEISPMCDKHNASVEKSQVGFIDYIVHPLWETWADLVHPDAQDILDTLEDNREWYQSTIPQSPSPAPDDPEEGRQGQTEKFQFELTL
SMILES,IC50 [1],further results
"CCn1nc(CCCOC(=O)c2cc(C(F)(F)F)ccc2C)c2c1C(=O)NCC1(CCOCC1)C2 [Example 67, 3-(1-ethyl-8-oxo-spiro[6,7-dihydro-4H-pyrazolo[3,4-c]azepine-5,4′-tetrahydro-pyran]-3-yl)propyl 2-methyl-5-(trifluoromethyl)benzoate]",< 100 nM,
"CCn1nc(CCOC(=O)c2ccc(S(C)(=O)=O)cc2)c2c1C(=O)NCC1(CCOCC1)C2 [Example 136, 2-(1-ethyl-8-oxo-spiro-[6,7-dihydro-4H-pyrazolo-[3,4-c]azepine-5,4′-tetra-hydropyran]-3-yl)ethyl 4-methylsulfonylbenzoate]",< 100 nM,
"CCn1nc(CCCOC(=O)c2ccc(C(F)(F)F)c(Cl)c2)c2c1C(=O)NCC1(CCOCC1)C2 [Example 86, 3-(1-ethyl-8-oxo-spiro[6,7-dihydro-4H-pyrazolo[3,4-c]azepine-5,4′-tetrahydro-pyran]-3-yl)propyl 3-chloro-4-(trifluoromethyl)benzoate]",< 100 nM,
"CCn1nc(CC(C)(C)COC(=O)c2ccc(S(=O)(=O)CC)cc2)c2c1C(=O)NCC1(CCOCC1)C2 [Example 203, [3-(1-ethyl-8-oxo-spiro[6,7-dihydro-4H-pyrazolo[3,4-c]azepine-5,4′-tetrahydropyran]-3-yl)-2,2-dimethyl-propyl] 4-ethylsulfonylbenzoate]",< 100 nM,
"CCn1nc(C[C@@H](C)COC(=O)c2cnc(C)s2)c2c1C(=O)NCC1(CCOCC1)C2 [Example 291, [(2R)-3-(1-ethyl-8-oxo-spiro[6,7-dihydro-4H-pyrazolo[3,4-c]azepine-5,4′-tetrahydropyran]-3-yl)-2-methyl-propyl] 2-methylthiazole-5-carboxylate]",,"IC50 (Table 16, Examples 277-296): < 100 nM"
"CCn1nc(CCCCOC(=O)c2ccc(C)cc2)c2c1C(=O)NCC1(CCOCC1)C2 [Example 123, 4-(1-ethyl-8-oxo-spiro[6,7-dihydro-4H-pyrazolo[3,4-c]azepine-5,4′-tetrahydropyran]-3-yl)butyl 4-methylbenzoate]",< 100 nM,
"CCn1nc(CC(C)(C)COC(=O)c2cccc(S(=O)(=O)N3CCCC3)c2)c2c1C(=O)NCC1(CCOCC1)C2 [Example 210, [3-(1-ethyl-8-oxo-spiro[6,7-dihydro-4H-pyrazolo[3,4-c]azepine-5,4′-tetrahydropyran]-3-yl)-2,2-dimethyl-propyl] 3-pyrrolidin-1-ylsulfonylbenzoate]",< 100 nM,
"CCn1nc(CCCOC(=O)C2CCOC2)c2c1C(=O)NCC1(CCOCC1)C2 (stereo not shown) [Example 236, 3-(1-ethyl-8-oxo-spiro[6,7-dihydro-4H-pyrazolo[3,4-c]azepine-5,4′-tetrahydro-pyran]-3-yl)propyl tetrahydrofuran-3-carboxylate]",< 100 nM,
"CCn1nc(CCCOC(=O)c2cc(C)n(C)n2)c2c1C(=O)NCC1(CCOCC1)C2 [Example 249, 3-(1-ethyl-8-oxo-spiro[6,7-dihydro-4H-pyrazolo[3,4-c]azepine-5,4′-tetrahydro-pyran]-3-yl)propyl 1,5-dimethylpyrazole-3-carboxylate]",< 100 nM,
"CCn1nc(CCCOC(=O)c2ccc(C)cc2F)c2c1C(=O)NCC1(CCOCC1)C2 [Example 18, 3-(1-ethyl-8-oxo-spiro[6,7-dihydro-4H-pyrazolo[3,4-c]azepine-5,4′-tetrahydropyran]-3-yl)propyl 2-fluoro-4-methyl-benzoate]",< 100 nM,
"CCn1nc(CC(C)(C)COC(=O)c2ccc(C(=O)N3CCCC3)cc2)c2c1C(=O)NCC1(CCOCC1)C2 [Example 221, [3-(1-ethyl-8-oxo-spiro[6,7-dihydro-4H-pyrazolo[3,4-c]azepine-5,4′-tetrahydro-pyran]-3-yl)-2,2-dimethyl-propyl] 4-(pyrrolidine-1-carbonyl)benzoate]",< 100 nM,
"CCn1nc(C[C@@H](C)COC(=O)c2ccc(C(=O)N3CCN(C(C)=O)CC3)cc2)c2c1C(=O)NCC1(CCOCC1)C2 [Example 176, [(2R)-3-(1-ethyl-8-oxo-spiro[6,7-dihydro-4H-pyrazolo[3,4-c]azepine-5,4′-tetrahydropyran]-3-yl)-2-methyl-propyl] 4-(4-acetylpiperazine-1-carbonyl)benzoate]",< 100 nM,
"CCn1nc(CCCOC(=O)c2ccc(S(=O)(=O)N(C)C)cc2)c2c1C(=O)NCC1(CCOCC1)C2 [Example 2, 3-(1-Ethyl-8-oxo-spiro[6,7-dihydro-4H-pyrazolo[3,4-c]azepine-5,4′-tetrahydropyran]-3-yl)propyl 4-(dimethylsulfamoyl)benzoate]",< 100 nM,
"CCn1nc(CC(C)(C)COC(=O)c2cc(C)nc(C)c2)c2c1C(=O)NCC1(CCOCC1)C2 [Example 313, [3-(1-ethyl-8-oxo-spiro[6,7-dihydro-4H-pyrazolo[3,4-c]azepine-5,4′-tetrahydropyran]-3-yl)-2,2-dimethyl-propyl] 2,6-dimethylpyridine-4-carboxylate]",,"IC50 (Table 17, Examples 297-316): < 100 nM"
"CCn1nc(C[C@@H](C)COC(=O)c2ccc(OC)cc2)c2c1C(=O)NCC1(CCOCC1)C2 [Example 149, [(2R)-3-(1-ethyl-8-oxo-spiro[6,7-dihydro-4H-pyrazolo[3,4-c]azepine-5,4′-tetrahydropyran]-3-yl)-2-methyl-propyl] 4-methoxybenzoate]",< 100 nM,
"CCn1nc(CCCOC(=O)c2ccc(F)c(OC)c2)c2c1C(=O)NCC1(CCOCC1)C2 [Example 36, 3-(1-ethyl-8-oxo-spiro[6,7-dihydro-4H-pyrazolo[3,4-c]azepine-5,4′-tetrahydropyran]-3-yl)propyl 4-fluoro-3-methoxy-benzoate]",< 100 nM,
"CCn1nc(CC(C)(C)COC(=O)c2cccc(C(=O)N(C)C)c2)c2c1C(=O)NCC1(CCOCC1)C2 [Example 229, [3-(1-ethyl-8-oxo-spiro[6,7-dihydro-4H-pyrazolo[3,4-c]azepine-5,4′-tetrahydro-pyran]-3-yl)-2,2-dimethyl-propyl] 3-(dimethyl-carbamoyl)benzoate]",< 100 nM,
"CCn1nc(CC(C)(C)COC(=O)C2CCOCC2)c2c1C(=O)NCC1(CCOCC1)C2 [Example 307, [3-(1-ethyl-8-oxo-spiro[6,7-dihydro-4H-pyrazolo[3,4-c]azepine-5,4′-tetrahydro-pyran]-3-yl)-2,2-dimethyl-propyl] tetrahydropyran-4-carboxylate]",,"IC50 (Table 17, Examples 297-316): < 100 nM"
"CCn1nc(CCCOC(=O)c2ccc(S(C)(=O)=O)cc2)c2c1C(=O)NCC1(CCOCC1)C2 [Example 3, 3-(1-Ethyl-8-oxo-spiro[6,7-dihydro-4H-pyrazolo[3,4-c]azepine-5,4′-tetrahydropyran]-3-yl)propyl 4-methylsulfonylbenzoate]",< 100 nM,
"CCn1nc(CCCCOC(=O)c2ccc(C(=O)NC)cc2)c2c1C(=O)NCC1(CCOCC1)C2 [Example 128, 4-(1-ethyl-8-oxo-spiro[6,7-dihydro-4H-pyrazolo[3,4-c]azepine-5,4′-tetrahydropyran]-3-yl)butyl 4-(methyl-carbamoyl)benzoate]",< 100 nM,
"CCn1nc(CCCOC(=O)c2cccc(F)c2Cl)c2c1C(=O)NCC1(CCOCC1)C2 [Example 49, 3-(1-ethyl-8-oxo-spiro[6,7-dihydro-4H-pyrazolo[3,4-c]azepine-5,4′-tetrahydropyran]-3-yl)propyl 2-chloro-3-fluoro-benzoate]",< 100 nM,
"CCn1nc(C[C@@H](C)COC(=O)c2cccc(S(=O)(=O)N3CCOCC3)c2)c2c1C(=O)NCC1(CCOCC1)C2 [Example 164, [(2R)-3-(1-ethyl-8-oxo-spiro[6,7-dihydro-4H-pyrazolo[3,4-c]azepine-5,4′-tetrahydropyran]-3-yl)-2-methyl-propyl] 3-morpholinosulfonylbenzoate]",< 100 nM,
"CCn1nc(CCCOC(=O)c2c(F)cccc2Cl)c2c1C(=O)NCC1(CCOCC1)C2 [Example 52, 3-(1-ethyl-8-oxo-spiro[6,7-dihydro-4H-pyrazolo[3,4-c]azepine-5,4′-tetrahydropyran]-3-yl)propyl 2-chloro-6-fluoro-benzoate]",< 100 nM,
"CCc1ccc(C(=O)OCC(C)(C)Cc2nn(CC)c3c2CC2(CCOCC2)CNC3=O)cc1 [Example 195, [3-(1-ethyl-8-oxo-spiro[6,7-dihydro-4H-pyrazolo[3,4-c]azepine-5,4′-tetrahydropyran]-3-yl)-2,2-dimethyl-propyl] 4-ethylbenzoate]",< 100 nM,
"CCn1nc(CCCOC(=O)c2ccc(C(=O)N3CCN(C(C)=O)CC3)cc2)c2c1C(=O)NCC1(CCOCC1)C2 [Example 111, 3-(1-ethyl-8-oxo-spiro[6,7-dihydro-4H-pyrazolo[3,4-c]azepine-5,4′-tetrahydropyran]-3-yl)propyl 4-(4-acetylpiperazine-1-carbonyl)benzoate]",< 100 nM,
"CCn1nc(CC(C)(C)COC(=O)c2ccc(C)cc2)c2c1C(=O)NCC1(CCOCC1)C2 [Example 188, [3-(1-ethyl-8-oxo-spiro[6,7-dihydro-4H-pyrazolo[3,4-c]azepine-5,4′-tetrahydropyran]-3-yl)-2,2-dimethyl-propyl] 4-methylbenzoate]",< 100 nM,
"CCn1nc(CCCOC(=O)c2ccc(S(=O)(=O)CC)cc2)c2c1C(=O)NCC1(CCOCC1)C2 [Example 77, 3-(1-ethyl-8-oxo-spiro[6,7-dihydro-4H-pyrazolo[3,4-c]azepine-5,4′-tetrahydro-pyran]-3-yl)propyl 4-ethylsulfonylbenzoate]",< 100 nM,
"CCn1nc(CCCOC(=O)c2c(F)cccc2OC)c2c1C(=O)NCC1(CCOCC1)C2 [Example 41, 3-(1-ethyl-8-oxo-spiro[6,7-dihydro-4H-pyrazolo[3,4-c]azepine-5,4′-tetrahydropyran]-3-yl)propyl 2-fluoro-6-methoxy-benzoate]",< 100 nM,

# Source: US10793580B2, “Substituted pyrazoloazepin-8-ones and their use as phosphodiesterase inhibitors” (LEO Pharma A/S, priority 2016, dated 2020)
